In assay [1] the target is T1, human OX1 receptor (Homo sapiens, UniProt O43613).
T1 sequence (O43613 1-425): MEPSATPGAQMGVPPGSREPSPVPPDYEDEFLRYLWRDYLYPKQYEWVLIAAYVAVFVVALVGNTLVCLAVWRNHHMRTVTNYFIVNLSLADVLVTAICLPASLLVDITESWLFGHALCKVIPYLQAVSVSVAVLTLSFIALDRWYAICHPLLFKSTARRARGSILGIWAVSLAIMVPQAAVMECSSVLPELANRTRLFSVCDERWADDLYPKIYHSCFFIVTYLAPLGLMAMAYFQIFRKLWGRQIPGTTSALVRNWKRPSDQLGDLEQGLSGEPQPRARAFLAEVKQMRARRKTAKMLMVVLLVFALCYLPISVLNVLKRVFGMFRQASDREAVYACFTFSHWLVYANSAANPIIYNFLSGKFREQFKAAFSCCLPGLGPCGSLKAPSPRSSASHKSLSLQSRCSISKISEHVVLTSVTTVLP
Nature of the assay: [3H]-radioligand binding assay, OX1. The settings on record: for Ki: [3H]-radioligand binding, human OX1 membranes, read-out: pKi average OX1 (converted). On the set-up: made in house; host or cells: SF21 insect cells (baculovirus; P0 virus made in SF9). The text has this:
(§1) Cloning, Baculovirus generation, large-scale infection of SF21 cells and membrane preparation. Human OX1 or OX2 receptor were cloned into Invitrogen's (ThermoFisher Scientific, UK) Bac-to-Bac Baculovirus Expression System. P0 baculovirus was generated by transfecting SF9 cells with bacmid DNA using Cellfectin® II transfection reagent (ThermoFisher Scientific, UK, Catalog number 10362-100). Following P0 generation P1 virus was then generated ready for large scale infection and membrane preparation. SF21 cells were grown in expression medium ESF921 (Expression Systems, USA, catalog number 96-001-01) supplemented with 10% heat-inactivated FBS and 1% Pen/Strep and were infected at a cell density of 2.5×10^6 cells/mL and a multiplicity of infection of 1.0 for both human OX1R and OX2R. Incubation was carried out at over 48 h in a shaking incubator set at 27° C. The cell culture was then centrifuged at 2,500 rcf for 10 min at 4° C. The pellets were resuspended in cold PBS supplemented with Roche's Complete EDTA-free protease inhibitor cocktail tablets (Roche Applied Sciences, catalog number 05056489001), 1 mM PMSF and 1 mM EDTA. The resuspended cell paste was then centrifuged at 3,273 rcf for 12 min at 4° C. The supernatant was discarded and the pellet frozen at −80° C. The cell pellet from a 4 L culture was resuspended in buffer containing 50 mM HEPES pH 7.5, 150 mM NaCl, 8 Roche EDTA-Free protease inhibitor cocktail tablets and 1 mM PMSF. The suspension was left stirring at rt for 1 h and then homogenised for 90 s at 9,500 rpm using a VDI 25 (VWR, USA) homogeniser. The cells were then lysed using a Microfluidiser processor M-110L Pneumatic (Microfluidics, USA) at 60 PSI and membranes collected by ultracentrifugation at 204.7 k×g for 1 h. The supernatant was discarded and the pellet was resuspended and homogenised in 90 s at 9,500 rpm in 50 mL (25 mL for each 2 L culture) of buffer containing 50 mM Hepes pH 7.5, 150 mM NaCl, 3 Roche EDTA-free protease inhibitor cocktail tablets and 1 mM PMSF. The resulting membranes were then stored at −80° C.
(§2) [^3H]-radioligand binding assay. After thawing, membrane homogenates were resuspended in the binding buffer (8.5 mM HEPES, pH 7.4, 1.3 mM CaCl2, 1.2 mM MgSO4, 118 mM NaCl, 4.7 mM KCl, 4 mM NaHCO3, 1.2 mM KH2PO4, 11 mM glucose) to a final assay concentration of 6.4 μg (OX1) or 1.4 μg (OX2) protein per well. Saturation isotherms were determined by the addition of various concentrations (0-30 nM) of [^3H]-4-(2,6-difluoro-4-methoxybenzyl)-2-(5,6-dimethoxypyridin-3-yl)-2H-1,2,4-benzothiadiazin-3(4H)-one 1,1-dioxide (Christopher et al, MedChemComm., 2015, 6, 947-955) in a total reaction volume of 250 μL for 90 min at rt. At the end of the incubation, membranes were filtered onto a 96-well GF/B filter pre-incubated with 0.5% polyethylenimine, with a Tomtec cell harvester and washed 5 times with 0.5 mL distilled water. Non-specific binding (NSB) was measured in the presence of 3.33 μM [4-(5-chloro-1,3-benzoxazol-2-yl)-7-methyl-1,4-diazepan-1-yl][5-methyl-2-(2H-1,2,3-triazol-2-yl)phenyl]methanone (Wertz et al, Angew. Chem. Int. Ed., 2011, 50, 11511-11515). Radioactivity on the filter was counted (1 min) on a Microbeta radiometric plate counter (Perkin Elmer) after addition of 50 μL of scintillation fluid (LabLogic: Part #SG-BXX-14). […] IC50 values were derived from the inhibition curve and the equilibrium dissociation constant (Ki) values were calculated using the Cheng-Prusoff equation.

For assay [2], the target named is T2, human OX2 receptor (Homo sapiens, UniProt O43614).
T2 sequence (O43614 1-444): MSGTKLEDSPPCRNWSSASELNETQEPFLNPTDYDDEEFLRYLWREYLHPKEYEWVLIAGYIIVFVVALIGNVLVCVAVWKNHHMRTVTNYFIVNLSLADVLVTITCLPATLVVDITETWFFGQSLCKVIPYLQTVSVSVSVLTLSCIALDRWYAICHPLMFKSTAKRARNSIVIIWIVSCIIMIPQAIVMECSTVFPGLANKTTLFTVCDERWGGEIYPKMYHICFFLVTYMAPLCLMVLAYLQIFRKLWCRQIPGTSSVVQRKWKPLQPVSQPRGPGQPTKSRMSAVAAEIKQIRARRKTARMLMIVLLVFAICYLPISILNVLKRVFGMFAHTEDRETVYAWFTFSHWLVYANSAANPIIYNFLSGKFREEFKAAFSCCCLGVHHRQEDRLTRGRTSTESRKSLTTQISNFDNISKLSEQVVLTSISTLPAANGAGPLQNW
Nature of the assay: [3H]-radioligand binding assay, OX2. The settings on record: for Ki: [3H]-radioligand binding, human OX2 membranes, read-out: pKi average OX2 (converted). Also noted: made in house; host or cells: SF21 insect cells (baculovirus; P0 virus made in SF9).
Description: as §1, §2

Structures are written as SMILES.

On to `COc1ncc(C2CCc3c(F)cccc3N(Cc3c(F)cc(Br)cc3F)C2=O)cc1C(C)(F)F` (single isomer, unassigned) [Example 11, 1-(4-bromo-2,6-difluorobenzyl)-3-[5-(1,1-difluoroethyl)-6-methoxypyridin-3-yl]-6-fluoro-1,3,4,5-tetrahydro-2H-1-benzazepin-2-one], for which the Ki is 1.58 nM in assay [1] and above 126 nM in assay [2].
With `COc1ncc(C2CCc3c(F)cccc3N(Cc3c(F)cc(Br)cc3F)C2=O)cc1S(C)(=O)=O` (single isomer, unassigned) [Example 20, 1-(4-bromo-2,6-difluorobenzyl)-6-fluoro-3-[6-methoxy-5-(methylsulfonyl)pyridin-3-yl]-1,3,4,5-tetrahydro-2H-1-benzazepin-2-one], the Ki in assay [1] was 200 nM; in assay [2], above 631 nM.
Take `COCc1cc(F)c(CN2C(=O)C(c3cnc(C)c(C(C)(F)F)c3)CCc3c(F)cccc32)c(F)c1` (single isomer, unassigned) [Example 40, 3-[5-(1,1-difluoroethyl)-6-methylpyridin-3-yl]-1-[2,6-difluoro-4-(methoxymethyl)benzyl]-6-fluoro-1,3,4,5-tetrahydro-2H-1-benzazepin-2-one]: the Ki was 1.58 nM in assay [1] and above 15.8 nM in assay [2].
For `Cc1ncc(C2CCc3c(F)cccc3N(Cc3cc(C#N)ccc3F)C2=O)cc1C(C)(F)F` (single isomer, unassigned) [Example 41, 3-({3-[5-(1,1-difluoroethyl)-6-methylpyridin-3-yl]-6-fluoro-2-oxo-2,3,4,5-tetrahydro-1H-1-benzazepin-1-yl}methyl)-4-fluorobenzonitrile], in that order: 1.26 nM and above 501 nM.
In the case of `COc1cc(F)c(CN2C(=O)N(c3cnc(OC)c(OC)c3)S(=O)(=O)c3ccccc32)c(F)c1` [[^3H]-4-(2,6-difluoro-4-methoxybenzyl)-2-(5,6-dimethoxypyridin-3-yl)-2H-1,2,4-benzothiadiazin-3(4H)-one 1,1-dioxide, reference compound], the dissociation constant (Kd) (as a rule, the concentration at which binding is half-saturated) amounted to 1.5 nM in assay [1] (OX1 receptor membranes, saturation isotherms) and 0.75 nM in assay [2] (OX2 receptor membranes, saturation isotherms).
